The values below come from patent US11230535B2, “CFTR regulators and methods of use thereof” (THE REGENTS OF THE UNIVERSITY OF CALIFORNIA, priority 2015, dated 2022).

Entries after “also recorded” stand apart in the source; their conditions may differ.

A short description of series [1]: 7-day oral toxicity study in mice (blood count, serum chemistry, body weight, lung wet/dry weight). In kind it is in vivo, mouse. From the text: Chronic administration and toxicity studies.
In series [2] the test system is BALB/c mice after lacrimal gland excision. The experiment in a line: Lacrimal gland excision (LGE) mouse model of aqueous-deficient dry eye. The series is classed as in vivo. The procedure: To assess corneal epithelial disruption, 5 μL of lissamine green (LG) dye (1%) was applied to the ocular surface of isofluorane-anesthetized mice. Photographs of the eye were taken using a Nikon Digital camera adapted to an Olympus Zoom Stereo Microscope (Olympus, Center Valley, Pa., USA). Each corneal quadrant was scored on a 3-point scale by one blinded, trained observer, with the extent of staining in each quadrant classified as: 0, no staining; 1, sporadic (involving <25% of the total surface) staining; grade 2, diffuse punctate staining (25-75%); and grade 3, coalesced punctate staining (≥75%). The total grade is reported as the sum of scores from all four quadrants, ranging from 0 to 12.
A lacrimal gland excision (LGE) model of aqueous-deficient dry eye was adapted from a reported method (30). The extraorbital lacrimal gland was exposed on each side of wild-type female BALB/c mice (7-8 weeks of age) by 3-mm linear skin incisions. Lacrimal ducts were cauterized and the entire gland was removed bilaterally, avoiding facial vessels and nerves. Incisions were each closed with a single interrupted 6-0 silk suture. Orbital lacrimal tissue remained functional. Eyes with reduced corneal sensation (<5% of mice studied), as identified from neurotrophic corneal ulcers within 1 day of LGE, were excluded. Mice were randomized to receive either treatment (in both eyes) with CFTRact-K089 (0.1 nmol) or vehicle. Mice were treated three times daily (8 AM, 2 PM and 8 PM) for 2 weeks starting on Day 1 after LGE. Tear secretion and LG staining were performed immediately prior to, and one hour after the initial dose on day 4, 10 and 14 after LGE.
Lissamine green staining. […] Each corneal quadrant was scored on a 3-point scale by one blinded, trained observer, with the extent of staining in each quadrant classified as: 0, no staining; 1, sporadic (involving <25% of the total surface) staining; grade 2, diffuse punctate staining (25-75%); and grade 3, coalesced punctate staining (≥75%). […]

Setting [3] is: 10 mg/kg oral once per day, 7 days.
Setting [4] is: 0.1 nmol topical three times daily.

On to `Nc1ccc([N+](=O)[O-])cc1-c1nc2ccccc2n(Cc2ccccc2)c1=O` [CFTRact-J027, 3-(2-amino-5-nitrophenyl)-1-benzylquinoxalin-2(1H)-one], for which the “toxicity after chronic administration” value in series [1] (10 mg/kg oral) is recorded as “without apparent toxicity”. Also, in series [1] (setting [3]), the ALP is on record as 53 ± 2.5 U/L, the ALT was 44 ± 6 U/L, the AST is on record as 105 ± 11 U/L and the Albumin worked out at 2.9 ± 0.03 g/dL. In series [1] (setting [3]), the BUN was found to be 18.4 ± 1.2 mg/dL, the Bicarbonate was 16 ± 1.7 mmol/L, the CK is 312 ± 62 U/L and the Calcium is 8.5 ± 0.04 mg/dL. In series [1] (setting [3]), this compound had a Chloride of 115 ± 1 mmol/L, a Cholesterol of 121 ± 6 mg/dL, a Creatinine of 0.2 ± 0 mg/dL and a Globulin of 2.2 ± 0.1 g/dL. Further, in series [1] (setting [3]), the Glucose was determined as 164 ± 6 mg/dL, the Hemoglobin is recorded as 12.8 ± 0.3 g/dL, the Leukocytes is 1.9 ± 0.5 10^3/μL and the Phosphorus was 6.8 ± 0.3 mg/dL. In addition, in series [1] (setting [3]), the Potassium is recorded as 4.4 ± 0.1 mmol/L, the Sodium worked out at 151 ± 0.7 mmol/L, the Thrombocytes is given as 900 ± 48 10^3/μL and the Total bilirubin is 0.1 ± 0 mg/dL. The Total protein in series [1] (setting [3]) stood at 5.2 ± 0.1 g/dL. In addition, in series [1] (7-day treated mice), the “body weight and airway/lung fluid accumulation” value is “nor did it change body weight or produce airway/lung fluid accumulation”; the lung water content result is “normal lung water content”; the “serum chemistry and blood parameters, in words” value was “did not affect the major serum chemistry and blood parameters”.
On to `CCN(CC)c1nc(Nc2ccccc2)nc(OC(C(F)(F)F)C(F)(F)F)n1` [CFTRact-K089, N,N-Diethyl-6-[(1,1,1,3,3,3-hexafluoropropan-2-yl)oxy]-N′-phenyl-1,3,5-triazine-2,4-diamine], for which the LG score change in series [2] (0.1 nmol three times daily, by Day 14, 12-point scale) is −0.6±0.6. Moreover, in series [2] (setting [4]), the “corneal / ocular surface epithelial disruption after LGE” value is “fully prevented the corneal epithelial disruption; also recorded: prevented ocular surface epithelial disruption at all time points” and the “tear secretion / tear volume after LGE” value is recorded as “restored tear secretion to basal levels; also recorded: maintained basal tear volume”.
